Target: T1, xanthine oxidase (XOD) (Bos taurus, UniProt P80457)
T1 construct: gene XDH; purified bovine liver XOD
Assay: enzyme kinetics, Lineweaver-Burk analysis with purified bovine liver XOD
Type: biochemical

T1 sequence (P80457 2-1332): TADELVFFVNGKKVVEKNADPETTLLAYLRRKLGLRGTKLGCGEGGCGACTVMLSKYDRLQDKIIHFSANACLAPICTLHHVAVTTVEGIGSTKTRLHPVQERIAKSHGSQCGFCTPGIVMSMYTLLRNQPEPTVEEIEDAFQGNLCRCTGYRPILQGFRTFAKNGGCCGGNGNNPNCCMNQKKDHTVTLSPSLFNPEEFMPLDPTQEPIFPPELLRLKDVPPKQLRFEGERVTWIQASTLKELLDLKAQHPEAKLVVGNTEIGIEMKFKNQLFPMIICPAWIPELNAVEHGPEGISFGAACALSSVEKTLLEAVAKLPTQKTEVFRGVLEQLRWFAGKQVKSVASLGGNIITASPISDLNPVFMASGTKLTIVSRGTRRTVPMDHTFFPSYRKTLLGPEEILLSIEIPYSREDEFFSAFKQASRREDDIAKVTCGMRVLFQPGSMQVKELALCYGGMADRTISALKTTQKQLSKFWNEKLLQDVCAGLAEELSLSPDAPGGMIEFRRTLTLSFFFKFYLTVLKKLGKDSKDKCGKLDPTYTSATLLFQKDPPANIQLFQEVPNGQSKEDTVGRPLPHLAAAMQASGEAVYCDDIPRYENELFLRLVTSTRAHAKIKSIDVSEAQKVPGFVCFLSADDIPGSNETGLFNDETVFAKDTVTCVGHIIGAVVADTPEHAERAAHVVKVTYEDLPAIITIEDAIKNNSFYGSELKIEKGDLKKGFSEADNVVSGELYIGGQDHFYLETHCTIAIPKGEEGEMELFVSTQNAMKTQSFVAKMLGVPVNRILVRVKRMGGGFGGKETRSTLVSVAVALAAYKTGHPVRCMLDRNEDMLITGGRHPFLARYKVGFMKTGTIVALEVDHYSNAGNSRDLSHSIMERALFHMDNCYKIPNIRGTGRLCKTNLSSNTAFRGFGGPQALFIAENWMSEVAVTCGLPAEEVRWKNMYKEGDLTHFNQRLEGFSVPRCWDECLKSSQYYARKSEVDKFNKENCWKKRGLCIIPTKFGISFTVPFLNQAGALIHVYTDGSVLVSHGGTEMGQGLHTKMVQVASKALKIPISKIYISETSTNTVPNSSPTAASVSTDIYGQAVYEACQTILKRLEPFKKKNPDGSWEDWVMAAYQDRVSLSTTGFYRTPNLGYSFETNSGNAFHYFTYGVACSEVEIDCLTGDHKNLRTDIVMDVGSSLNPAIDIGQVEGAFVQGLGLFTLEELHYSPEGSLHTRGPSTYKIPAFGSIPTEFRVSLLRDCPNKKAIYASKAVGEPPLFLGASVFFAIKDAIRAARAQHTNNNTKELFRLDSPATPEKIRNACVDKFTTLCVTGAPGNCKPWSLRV

## Cn1c(=O)c2c(ncn2C)n(C)c1=O [caffeine, 1,3,7-trimethylxanthine]
  Ki: 4.02 mM

Source: paper PMC4745685, “Caffeine affects the biological responses of human hematopoietic cells of myeloid lineage via downregulation of the mTOR pathway and xanthine oxidase activity” (Oncotarget, 2015)
